Reference: ChEMBL document CHEMBL5620348, “3-Hydroxy-pyridin-4(1H)-ones as siderophores mediated delivery of isobavachalcone enhances antibacterial activity against pathogenic Pseudomonas aeruginosa” (Eur J Med Chem, 2023)
The source made the active and inactive calls. The rule behind the calls is not given here.

How the values were obtained:
Pseudomonas aeruginosa [1] = assay: Antibacterial activity against Pseudomonas aeruginosa PAO1 infected in Caenorhabditis elegans assessed as increase in worm survival rate at 2 times MIC incubated for 60 hrs relative to control; type: functional
Pseudomonas aeruginosa [2] = assay: Antibacterial activity against Pseudomonas aeruginosa PAO1 assessed as inhibition of bacterial growth at 1 to 4 times MIC incubated upto 24 hrs by time-kill based microplate reader assay; type: functional, organism-based
Pseudomonas aeruginosa [3] = assay: Antibacterial activity against Pseudomonas aeruginosa PAO1 assessed as inhibition of bacterial growth incubated for 18 to 20 hrs in presence of M9 medium by broth microdilution assay; type: functional, organism-based
Staphylococcus aureus [4] = assay: Bactericidal activity against Staphylococcus aureus ATCC 25923 assessed as inhibition of bacterial growth at 1 to 2 times MIC incubated upto 24 hrs by time-kill based microplate reader assay; type: functional, organism-based
Escherichia coli = assay: Antibacterial activity against Escherichia coli ATCC 25922 assessed as inhibition of bacterial growth by measuring minimum inhibitory concentration incubated for 18 to 20 hrs in presence of M9 medium by broth microdilution assay; type: functional; settings: time 18-20 hrs
Pseudomonas aeruginosa [5] = assay: Antibacterial activity against multi-drug resistant Pseudomonas aeruginosa clinical isolate 1129 assessed as inhibition of bacterial growth by measuring minimum inhibitory concentration incubated for 18 to 20 hrs in presence of M9 medium by broth microdilution assay; type: functional; settings: time 18-20 hrs
Pseudomonas aeruginosa [6] = assay: Antibacterial activity against Pseudomonas aeruginosa PAO1 infected in Caenorhabditis elegans assessed as increase in worm survival rate at 0.5 times MIC incubated for 60 hrs; type: functional, organism-based
Cell membrane [7] = assay: Disruption of cell membrane integrity in Pseudomonas aeruginosa PAO1 assessed as increase in red fluorescence incubated for 5.5 hrs by propidium iodide staining based confocal laser-scanning microscopic analysis; type: cell membranes
Cell membrane [8] = assay: Disruption of cell membrane integrity in Pseudomonas aeruginosa PAO1 assessed as increase in nucleic acid leakage at 0.5 to 4 MIC incubated for 6 hrs by microplate reader analysis; type: cell membranes
Pseudomonas aeruginosa [9] = assay: Antibacterial activity against Pseudomonas aeruginosa PAO1 assessed as inhibition of bacterial growth by measuring minimum inhibitory concentration incubated for 18 to 20 hrs in presence of MH medium by broth microdilution assay; type: functional; settings: time 18-20 hrs
Vero [10] = assay: Cytotoxicity against green monkey Vero cells assessed as reduction in cell viability at > 32 ug/ml incubated for 24 hrs by MTT assay; type: toxicity, cell-based; settings: chlorocebus sabaeus, dose > 32 µg/ml
Pseudomonas aeruginosa [11] = assay: Antibacterial activity against multi-drug resistant Pseudomonas aeruginosa clinical isolate 1167 assessed as inhibition of bacterial growth by measuring minimum inhibitory concentration incubated for 18 to 20 hrs in presence of M9 medium by broth microdilution assay; type: functional; settings: time 18-20 hrs
Staphylococcus aureus [12] = assay: Antibacterial activity against Staphylococcus aureus ATCC 25923 assessed as inhibition of bacterial growth by measuring minimum inhibitory concentration incubated for 18 to 20 hrs in presence of M9 medium by broth microdilution assay; type: functional; settings: time 18-20 hrs
Pseudomonas aeruginosa [13] = assay: Antibacterial activity against multi-drug resistant Pseudomonas aeruginosa clinical isolate FB assessed as inhibition of bacterial growth by measuring minimum inhibitory concentration incubated for 18 to 20 hrs in presence of M9 medium by broth microdilution assay; type: functional; settings: time 18-20 hrs
Cell membrane [14] = assay: Disruption of cell membrane integrity in Pseudomonas aeruginosa PAO1 assessed as increase in protein leakage at 0.5 to 4 MIC incubated for 6 hrs by BCA protein assay; type: cell membranes
Pseudomonas aeruginosa [15] = assay: Antibacterial activity against multi-drug resistant Pseudomonas aeruginosa clinical isolate 1121 assessed as inhibition of bacterial growth by measuring minimum inhibitory concentration incubated for 18 to 20 hrs in presence of M9 medium by broth microdilution assay; type: functional; settings: time 18-20 hrs
Pseudomonas aeruginosa [16] = assay: Antibacterial activity against Pseudomonas aeruginosa PAO1 assessed as inhibition of bacterial growth at 2 times MIC incubated upto 24 hrs in presence of Fe(III) by time-kill based microplate reader assay; type: functional, organism-based
Pseudomonas aeruginosa [17] = assay: Antibacterial activity against Pseudomonas aeruginosa PAO1 assessed as inhibition of bacterial growth incubated for 18 to 20 hrs in presence of MH medium by broth microdilution assay; type: functional, organism-based
Pseudomonas aeruginosa [18] = assay: Antibacterial activity against Pseudomonas aeruginosa PAO1 assessed as inhibition of bacterial growth incubated for 18 to 20 hrs in presence of M9 and FeCl3 medium by broth microdilution assay; type: functional, organism-based
Pseudomonas aeruginosa [19] = assay: Antibacterial activity against Pseudomonas aeruginosa PAO1 assessed as inhibition of bacterial growth by measuring minimum inhibitory concentration incubated for 18 to 20 hrs in presence of M9 and FeCl3 medium by broth microdilution assay; type: functional; settings: time 18-20 hrs
Pseudomonas aeruginosa [20] = assay: Antibacterial activity against Pseudomonas aeruginosa PAO1 assessed as reduction in metabolic activity incubated for 6 hrs by resazurin reagent based microplate reader analysis; type: functional, organism-based
Klebsiella pneumoniae = assay: Antibacterial activity against Klebsiella pneumoniae ATCC 700603 assessed as inhibition of bacterial growth by measuring minimum inhibitory concentration incubated for 18 to 20 hrs in presence of M9 medium by broth microdilution assay; type: functional; settings: time 18-20 hrs
Vero [21] = assay: Cytotoxicity against green monkey Vero cells assessed as reduction in cell viability at 128 ug/ml incubated for 24 hrs by MTT assay; type: toxicity, cell-based; settings: chlorocebus sabaeus, dose 128 µg/ml
Pseudomonas aeruginosa [22] = assay: Antibacterial activity against Pseudomonas aeruginosa PAO1 assessed as inhibition of bacterial growth by measuring minimum inhibitory concentration incubated for 18 to 20 hrs in presence of M9 medium by broth microdilution assay; type: functional; settings: time 18-20 hrs
Pseudomonas aeruginosa [23] = assay: Antibacterial activity against Pseudomonas aeruginosa ATCC27853 assessed as inhibition of bacterial growth by measuring minimum inhibitory concentration incubated for 18 to 20 hrs in presence of M9 medium by broth microdilution assay; type: functional; settings: time 18-20 hrs

With `CC(C)=CCc1c(O)ccc(C(=O)/C=C/c2ccc(OCCCOCc3cc(=O)c(O)cn3C)cc2)c1O` the Survival (Pseudomonas aeruginosa [1]) was 55%, the Activity (Pseudomonas aeruginosa [2]) was “Active” and the IC50 (Pseudomonas aeruginosa [3]) was 1.45 µg/mL. The Activity (Staphylococcus aureus [4]) was “inactive”, the MIC (Escherichia coli) was greater than 128 µg/mL and the MIC (Pseudomonas aeruginosa [5]) was 8 µg/mL. The Activity (Pseudomonas aeruginosa [6]) was “inactive”, the Activity (Cell membrane [7]) was “Dose-Dependent Effect” and the Activity (Cell membrane [8]) was “Active”. For the same compound, the MIC (Pseudomonas aeruginosa [9]) was 32 µg/mL, the Activity (Vero [10]) was “Toxic” and the MIC (Pseudomonas aeruginosa [11]) was 8 µg/mL. For the same compound, the MIC (Staphylococcus aureus [12]) was 32 µg/mL, the MIC (Pseudomonas aeruginosa [13]) was 16 µg/mL and the Activity (Cell membrane [14]) was “Active”. For the same compound, the MIC (Pseudomonas aeruginosa [15]) was 8 µg/mL, the Activity (Pseudomonas aeruginosa [16]) was “inactive” and the IC50 (Pseudomonas aeruginosa [17]) was 16.8 µg/mL. The IC50 (Pseudomonas aeruginosa [18]) was greater than 128 µg/mL, the MIC (Pseudomonas aeruginosa [19]) was greater than 128 µg/mL and the Activity (Pseudomonas aeruginosa [20]) was “Dose-Dependent Effect”. For the same compound, the MIC (Klebsiella pneumoniae) was greater than 128 µg/mL, the Activity (Vero [21]) was “Non-Toxic” and the MIC (Pseudomonas aeruginosa [22]) was 16 µg/mL. For the same compound, the MIC (Pseudomonas aeruginosa [23]) was 32 µg/mL.
